# Experimental data: patent publication US20040033902A1, “Diphenyl ehter induction systemic resistance in plants” (priority 2002, published 2004)
# What was measured:
# [1] = system: snapped cotyledons of Williams variety soybean; test: Snapped cotyledon assay, isoflavone and glyceollin induction, HPLC (Example 4); assay type: cell-based; details: 7 day old Williams soybean, average of two experiments; for Glyceollin Induction: 48 h, tested 10 uM to 1 mM alone and with 30 ug/ml glucan elicitor from Phytophthora sojae, concentration not given; for Total Isoflavone Induction: 48 h constant light, tested 10 uM to 1 mM, concentration of the printed value not stated, standard error less than 15%
# Description: The snapped cotyledon assay is a minimal wound assay used to investigate the effects of test compounds in a non-primed background. The assay is performed by snapping cotyledons in two and placing the petiole side down in 0.5% water agar. Ten snapped cotyledons are used per treatment, and the subepidermal cells exposed by snapping are treated with glucan defense elicitor and/or the effector (i.e., diphenyl ether) being examined. The cotyledons are incubated in the light for 48 h as in the cut cotyledon assay. Both proximal (first cell layer) and distal (second and third cell layers) are harvested for analysis by HPLC (see below). Full details of this assay can be found in the publication: Graham, T. L. and Graham, M. Y. 1996. Signaling in soybean phenylpropanoid responses: dissection of primary, secondary and conditioning effects of light, wounding and elicitor treatments. Plant Physiol. 110:1123-1133.
# The snapped cotyledon assay is “naive.” That is, it is not pre-disposed or primed for competency for the elicitation of phytoalexin glyceollin in response to the glucan elicitor. Thus, treatment with the glucan elicitor induces the formation of the isoflavones daidzein and genistein, but very little glyceollin. This is an excellent assay to study the effects of a chemical treatment on isoflavone metabolism by itself or in combination with the glucan. In the absence of the glucan, it gives an excellent picture of the effects of the compound alone on isoflavone metabolism. In the presence of the glucan, it tells us if the test compound can induce elicitation competency for the glyceollin response to the glucan.
# High performance liquid chromatography (HPLC) is the method of choice for determining the levels of isoflavone defense compounds in soybean. With a single HPLC analysis, one gets a complete and quantitative profile of up to 50 or more aromatic compounds, including all the isoflavones and their conjugates and the phytoalexins, including glyceollin. As little as 20 mg of plant tissue is needed and the method can be readily applied to cotyledon, leaf or any soybean tissue. This analytical method allows us to determine the nmoles/g of each metabolite, which can then readily be processed to compare the percent increase or decrease of a given metabolite in comparison to either water or glucan-treated control tissues. Routinely, tissues are extracted in 80% ethanol and subjected to water/acetonitrile gradient elution from a C18 reverse phase HPLC column. Full details of this procedure can be found in the publication: Graham, T. L. 1991. A Rapid, High Resolution High Performance Liquid Chromatography Profiling Procedure for Plant and Microbial Aromatic Secondary Metabolites. Plant Physiol. 95:584-593. […]
# [2] = system: cut cotyledons (Williams cotyledons); test: Cut cotyledon assay, isoflavones (Williams cotyledons); assay type: cell-based, soybean; details: 50-500 uM
# Description: The cut cotyledon assay is used to investigate both the ability of a compound (effector) to activate basal elicitation competency in plants, and to evaluate the ability of a secondary compound (elicitor) to enhance glyceollin elicitation competency in plants in which the isoflavone pools were “loaded” by the action of the effector.
# The level of isoflavones in the cotyledon tissues are measured after the addition of different diphenyl ethers to determine the effectiveness of each in inducing the basal production of isoflavones in cotyledon tissues (effector studies). In the elicitor studies, the addition of diphenyl ether first “primes” the cut cotyledon. […] Thus, the ability of a compound to enhance glyceollin elicitation competency by “loading” the isoflavone pools can also be measured.
# Cotyledons from 7-8 day old soybean seedlings are removed from the plant and cut on the lower surface to expose subepidermal tissues. […] Tissues are analyzed by HPLC as noted below. […]
# High performance liquid chromatography (HPLC) is the method of choice for determining the levels of isoflavone defense compounds in soybean. With a single HPLC analysis, one gets a complete and quantitative profile of up to 50 or more aromatic compounds, including all the isoflavones and their conjugates and the phytoalexins, including glyceollin. […]
Compound,Glyceollin Induction [1],Total Isoflavone Induction [1],range of increase of isoflavones over the concentration range [2]
"O=C(O)c1cc(Oc2ccc(C(F)(F)F)cc2Cl)ccc1[N+](=O)[O-] [Acifluorfen, acifluorfen]",+122%,+56%,–
N[C@@H](Cc1cc(I)c(Oc2cc(I)c(O)c(I)c2)c(I)c1)C(=O)O [thyroxine],–,–,20-40%
"CS(=O)(=O)NC(=O)c1cc(Oc2ccc(C(F)(F)F)cc2Cl)ccc1[N+](=O)[O-] [Fomesafen, fomesafen]",+233%,+85%,–
